Tests used:
[1] = system: NRF2 gene; test: Genomic DNA PCR assessment of large deletions in NRF2 gene; type: cell-based, Human; conditions: gRNA alone, not paired
Experimental: After CRISPR reactions, genomic DNA was prepared for PCR amplification of the target region from NRF2 gene. PCR-amplified DNA was then analyzed by electrophoresis through a 1% agarose gel for 75 minutes at 80v. DNA was stained with SYBR Safe. Lanes 1 and 12: NEB 2 Log Ladder; Lane 2: Scrambled gRNA; Lane 3: R34G gRNA alone; Lane 4: NRF2 3-4 SureKill gRNA 3 alone; Lane 5: NRF2 3-4 SureKill gRNA 12 alone; Lane 6: NRF2 3-4 SureKill gRNA 14 alone; Lane 7: NRF2 3-4 SureKill gRNA 15 alone; Lane 8: NRF2 3-4 SureKill gRNA 3+R34G gRNA; Lane 9: NRF2 3-4 SureKill gRNA 12+R34G gRNA; Lane 10: NRF2 3-4 SureKill gRNA 14+R34G gRNA; Lane 11: NRF2 3-4 SureKill gRNA 15+R34G gRNA. On the left side of the image are markers indicating DNA size in bp. Expected dropout size for NRF2 3-4 SureKill gRNA 3+R34G gRNA: 676 bp. Expected dropout size for NRF2 3-4 SureKill gRNA 12+R34G gRNA: 658 bp. Expected dropout size for NRF2 3-4 SureKill gRNA 14+R34G gRNA: 582 bp. Expected dropout size for NRF2 3-4 SureKill gRNA 15+R34G gRNA: 515 bp. Dropout bands are indicated by asterisks.
Human lung squamous cell carcinoma NCI-H1703 clone 44-25 cells were derived from NCI-H1703 cells (#CRL-5889) which were purchased from ATCC (Manassas, VA, USA). […]
(§1) Transfections were carried out using the Lonza Nuclefector 4d. […] RNPs were complexed at 250:50 pmol for 30 minutes prior to transfection, during which time cells were harvested and counted. […]

[2] = system: EGFR gene; test: Genomic DNA PCR assessment of large deletions in EGFR gene; type: cell-based, Human; conditions: gRNA alone, not paired
Experimental: After CRISPR reactions, genomic DNA was prepared for PCR amplification of the target region from EGFR gene. PCR-amplified DNA was then analyzed by electrophoresis through a 1% agarose gel for 75 minutes at 80v. DNA was stained with SYBR Safe. Lanes 1 and 10: NEB 2 Log Ladder; Lane 2: Scrambled gRNA; Lane 3: L858R gRNA alone; Lane 4: EGFR 21-22 SureKill gRNA 19 alone; Lane 5: EGFR 21-22 SureKill gRNA 27 alone; Lane 6: EGFR 21-22 SureKill gRNA 28+L858R gRNA; Lane 7: EGFR 21-22 SureKill gRNA 27+L858R gRNA; Lane 8: EGFR 21-22 SureKill gRNA 19+L858R gRNA; Lane 9: EGFR 21-22 SureKill gRNA 28 alone. On the left side of the image are markers indicating DNA size in bp. Expected dropout size of EGFR 21-22 SureKill gRNA 19+L858R gRNA: 316 bp. Expected dropout size of EGFR 21-22 SureKill gRNA 27+L858R gRNA: 417 bp. Expected dropout size of EGFR 21-22 SureKill gRNA 28+L858R gRNA: 463 bp. Dropout bands are indicated by asterisks.
Human lung squamous cell carcinoma NCI-H1703 clone 44-25 cells were derived from NCI-H1703 cells (#CRL-5889) which were purchased from ATCC (Manassas, VA, USA). NCI-H1703 clone 44-25 cells contains R34G mutation (C 4 G) in NFE2L2 gene. […]
as §1

Substance | large deletions (genomic DNA PCR) [1] | large deletions (genomic DNA PCR) [2]
R34G gRNA: guide RNA GATATAGATCTTGGAGTAAG, SEQ ID NO:1, targets NRF2 R34G mutation (listed as DNA, chemistry not given here) | does not induce a large deletion | –
L858R gRNA: guide RNA TCAAGATCACAGATTTTGGG, SEQ ID NO:8, targets EGFR L858R mutation (listed as DNA, chemistry not given here) | – | does not induce a large deletion

From patent US12171813B2, “Methods of and compositions for reducing gene expression and/or activity” (Christiana Care Gene Editing Institute, Inc., priority 2021, dated 2024)
